Test results reported in PubChem BioAssay AID1963831 (Molecular Pharmacology Branch, DTP, NCI, 2024).
pIC50: −log10 of the molar value.

System: 889142-216-R-J1-PDC complex spheroid viability
Assay: Anticancer human tumor 889142-216-R-J1-PDC patient-derived bladder carcinoma cell line growth inhibition [POLQ]
Details: for pIC50: curve of first compound; for viability, T/C: stronger effect = lower value
How it was run: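 Three-cell-type spheroids modelling solid tumor plus stroma served as the readout system; POL inhibitors were tested individually and in combination, concentration ranges set by clinical Cmax where known.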

[1] = second compound 0.0316 µM, first compound 0.0316 µM
[2] = second compound 0.0316 µM, first compound 0.1 µM
[3] = second compound 0.0316 µM, first compound 0.316 µM
[4] = second compound 0.0316 µM, first compound 1 µM
[5] = second compound 0.0316 µM, first compound 3.16 µM
[6] = second compound 0.0316 µM, first compound 10 µM
[7] = second compound 0.1 µM, first compound 0.0316 µM
[8] = second compound 0.1 µM, first compound 0.1 µM
[9] = second compound 0.1 µM, first compound 0.316 µM
[10] = second compound 0.1 µM, first compound 1 µM
[11] = second compound 0.1 µM, first compound 3.16 µM
[12] = second compound 0.1 µM, first compound 10 µM
[13] = second compound 0.316 µM, first compound 0.0316 µM
[14] = second compound 0.316 µM, first compound 0.1 µM
[15] = second compound 0.316 µM, first compound 0.316 µM
[16] = second compound 0.316 µM, first compound 1 µM
[17] = second compound 0.316 µM, first compound 3.16 µM
[18] = second compound 0.316 µM, first compound 10 µM
[19] = second compound 1 µM, first compound 0.0316 µM
[20] = second compound 1 µM, first compound 0.1 µM
[21] = second compound 1 µM, first compound 0.316 µM
[22] = second compound 1 µM, first compound 1 µM
[23] = second compound 1 µM, first compound 3.16 µM
[24] = second compound 1 µM, first compound 10 µM
[25] = second compound 3.16 µM, first compound 0.0316 µM
[26] = second compound 3.16 µM, first compound 0.1 µM
[27] = second compound 3.16 µM, first compound 0.316 µM
[28] = second compound 3.16 µM, first compound 1 µM
[29] = second compound 3.16 µM, first compound 3.16 µM
[30] = second compound 3.16 µM, first compound 10 µM
[31] = second compound 10 µM, first compound 0.0316 µM
[32] = second compound 10 µM, first compound 0.1 µM
[33] = second compound 10 µM, first compound 0.316 µM
[34] = second compound 10 µM, first compound 1 µM
[35] = second compound 10 µM, first compound 3.16 µM
[36] = second compound 10 µM, first compound 10 µM
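Also: spheroids exposed to compounds for seven days.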
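For viability, T/C in this document: 100% = DMSO vehicle control viability.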

`C=CC(=O)N1CCN(c2nc(=O)n(-c3c(C)ccnc3C(C)C)c3nc(-c4c(O)cccc4F)c(F)cc23)C(C)C1` (stereo not drawn) + Nc1ccc(C#CCN(C(=O)Cc2ncc(C(F)(F)F)cc2C(F)(F)F)c2ccc(F)cc2)nn1 was tested, and the pIC50 (second compound 0.0316 µM) was less than 5.00, the pIC50 (second compound 0.1 µM) was less than 5.00 and the pIC50 (second compound 0.316 µM) was less than 5.00. The pIC50 (second compound 1 µM) was less than 5.00, the pIC50 (second compound 3.16 µM) was less than 5.00 and the pIC50 (second compound 10 µM) was less than 5.00. It also gave a viability, T/C [1] of 95.4%, a viability, T/C [2] of 111% and a viability, T/C [3] of 87.8%. It also gave a viability, T/C [4] of 121%, a viability, T/C [5] of 133% and a viability, T/C [6] of 93.6%. For the same molecule, the viability, T/C [7] was 103%, the viability, T/C [8] was 89.2% and the viability, T/C [9] was 109%. The viability, T/C [10] was 129%, the viability, T/C [11] was 111% and the viability, T/C [12] was 102%. It also gave a viability, T/C [13] of 135%, a viability, T/C [14] of 127% and a viability, T/C [15] of 96.3%. For the same molecule, the viability, T/C [16] was 96.5%, the viability, T/C [17] was 145% and the viability, T/C [18] was 111%. It also gave a viability, T/C [19] of 113%, a viability, T/C [20] of 86% and a viability, T/C [21] of 120%. It also gave a viability, T/C [22] of 121%, a viability, T/C [23] of 116% and a viability, T/C [24] of 100%. For the same molecule, the viability, T/C [25] was 126%, the viability, T/C [26] was 88.3% and the viability, T/C [27] was 119%. The viability, T/C [28] was 88.8%, the viability, T/C [29] was 119% and the viability, T/C [30] was 104%. The viability, T/C [31] was 99.5%, the viability, T/C [32] was 114% and the viability, T/C [33] was 121%. It also gave a viability, T/C [34] of 95.1%, a viability, T/C [35] of 126% and a viability, T/C [36] of 131%.

`CC1COCCN1c1cc(C2(O)CC3CCC(C2)O3)c2cnn(-c3ccn[nH]3)c2n1` (stereo not drawn) + Cc1cccc(N(C)C(=O)C2C(O)CCN2c2nc(C)cc(C(F)(F)F)c2C#N)c1 showed a pIC50 (second compound 0.0316 µM) of 6.88, a pIC50 (second compound 0.1 µM) of 7.15 and a pIC50 (second compound 0.316 µM) of 6.88. It also gave a pIC50 (second compound 1 µM) of 6.99, a pIC50 (second compound 3.16 µM) of 7.01 and a pIC50 (second compound 10 µM) of 7.25. The viability, T/C [1] was 66.5%, the viability, T/C [2] was 48.2% and the viability, T/C [3] was 42.3%. For the same molecule, the viability, T/C [4] was 34.2%, the viability, T/C [5] was 26.1% and the viability, T/C [6] was 14.6%. For the same molecule, the viability, T/C [7] was 56.7%, the viability, T/C [8] was 48.1% and the viability, T/C [9] was 36.1%. The viability, T/C [10] was 29%, the viability, T/C [11] was 23.8% and the viability, T/C [12] was 15.2%. It also gave a viability, T/C [13] of 66.8%, a viability, T/C [14] of 49.5% and a viability, T/C [15] of 39.8%. It also gave a viability, T/C [16] of 34.5%, a viability, T/C [17] of 25.9% and a viability, T/C [18] of 12.4%. It also gave a viability, T/C [19] of 62.7%, a viability, T/C [20] of 48.4% and a viability, T/C [21] of 38.9%. It also gave a viability, T/C [22] of 31.2%, a viability, T/C [23] of 22.6% and a viability, T/C [24] of 12.4%. It also gave a viability, T/C [25] of 61.5%, a viability, T/C [26] of 47.9% and a viability, T/C [27] of 40%. It also gave a viability, T/C [28] of 30.6%, a viability, T/C [29] of 26.4% and a viability, T/C [30] of 13.7%. For the same molecule, the viability, T/C [31] was 55.9%, the viability, T/C [32] was 43.6% and the viability, T/C [33] was 37.6%. For the same molecule, the viability, T/C [34] was 29.5%, the viability, T/C [35] was 29.9% and the viability, T/C [36] was 13.3%.

With `C=CCn1c(=O)c2cnc(Nc3ccc(N4CCN(C)CC4)cc3)nc2n1-c1cccc(C(C)(C)O)n1` + COC1C(OC(N)=O)C(O)C(Oc2ccc3c(O)c(NC(=O)c4ccc(O)c(CC=C(C)C)c4)c(=O)oc3c2C)OC1(C)C the pIC50 (second compound 0.0316 µM) was less than 6.00, the pIC50 (second compound 0.1 µM) was less than 6.00 and the pIC50 (second compound 0.316 µM) was less than 6.00. The pIC50 (second compound 1 µM) was less than 6.00, the pIC50 (second compound 3.16 µM) was less than 6.00 and the pIC50 (second compound 10 µM) was less than 6.00. It also gave a viability, T/C (second compound 0.0316 µM, first compound 0.00316 µM) of 97.1%, a viability, T/C (second compound 0.0316 µM, first compound 0.01 µM) of 152% and a viability, T/C [1] of 86.6%. It also gave a viability, T/C [2] of 83.1%, a viability, T/C [3] of 66.1% and a viability, T/C [4] of 52%. The viability, T/C (second compound 0.1 µM, first compound 0.00316 µM) was 98.3%, the viability, T/C (second compound 0.1 µM, first compound 0.01 µM) was 111% and the viability, T/C [7] was 108%. It also gave a viability, T/C [8] of 81.2%, a viability, T/C [9] of 60.9% and a viability, T/C [10] of 57.5%. The viability, T/C (second compound 0.316 µM, first compound 0.00316 µM) was 100%, the viability, T/C (second compound 0.316 µM, first compound 0.01 µM) was 125% and the viability, T/C [13] was 103%. The viability, T/C [14] was 86.4%, the viability, T/C [15] was 63.6% and the viability, T/C [16] was 54.7%. It also gave a viability, T/C (second compound 1 µM, first compound 0.00316 µM) of 112%, a viability, T/C (second compound 1 µM, first compound 0.01 µM) of 110% and a viability, T/C [19] of 113%. The viability, T/C [20] was 89.5%, the viability, T/C [21] was 68.6% and the viability, T/C [22] was 57%. For the same molecule, the viability, T/C (second compound 3.16 µM, first compound 0.00316 µM) was 90.2%, the viability, T/C (second compound 3.16 µM, first compound 0.01 µM) was 99.6% and the viability, T/C [25] was 85.4%. The viability, T/C [26] was 108%, the viability, T/C [27] was 64.5% and the viability, T/C [28] was 50.2%. The viability, T/C (second compound 10 µM, first compound 0.00316 µM) was 127%, the viability, T/C (second compound 10 µM, first compound 0.01 µM) was 116% and the viability, T/C [31] was 97.8%. For the same molecule, the viability, T/C [32] was 85.9%, the viability, T/C [33] was 62.5% and the viability, T/C [34] was 51.8%.

`C=CC(=O)N1CCN(c2nc(=O)n(-c3c(C)ccnc3C(C)C)c3nc(-c4c(O)cccc4F)c(F)cc23)C(C)C1` (stereo not drawn) + Cc1cccc(N(C)C(=O)C2C(O)CCN2c2nc(C)cc(C(F)(F)F)c2C#N)c1 gave a pIC50 (second compound 0.0316 µM) of less than 5.00, a pIC50 (second compound 0.1 µM) of less than 5.00 and a pIC50 (second compound 0.316 µM) of less than 5.00. The pIC50 (second compound 1 µM) was less than 5.00, the pIC50 (second compound 3.16 µM) was less than 5.00 and the pIC50 (second compound 10 µM) was less than 5.00. It also gave a viability, T/C [1] of 108%, a viability, T/C [2] of 93.5% and a viability, T/C [3] of 102%. It also gave a viability, T/C [4] of 115%, a viability, T/C [5] of 122% and a viability, T/C [6] of 81.4%. It also gave a viability, T/C [7] of 110%, a viability, T/C [8] of 112% and a viability, T/C [9] of 100%. It also gave a viability, T/C [10] of 101%, a viability, T/C [11] of 132% and a viability, T/C [12] of 96.2%. The viability, T/C [13] was 97.4%, the viability, T/C [14] was 119% and the viability, T/C [15] was 123%. The viability, T/C [16] was 116%, the viability, T/C [17] was 129% and the viability, T/C [18] was 106%. It also gave a viability, T/C [19] of 104%, a viability, T/C [20] of 107% and a viability, T/C [21] of 107%. The viability, T/C [22] was 111%, the viability, T/C [23] was 124% and the viability, T/C [24] was 89.3%. The viability, T/C [25] was 98.5%, the viability, T/C [26] was 89.3% and the viability, T/C [27] was 93.8%. It also gave a viability, T/C [28] of 97.2%, a viability, T/C [29] of 138% and a viability, T/C [30] of 87.9%. It also gave a viability, T/C [31] of 91.1%, a viability, T/C [32] of 74.8% and a viability, T/C [33] of 82.5%. The viability, T/C [34] was 100%, the viability, T/C [35] was 106% and the viability, T/C [36] was 76.7%.
